In ChEMBL document CHEMBL1201862, “PubChem BioAssay data set” (2004):
Active and inactive are the calls of the source.

Key:
[1] = molecular target: Alkaline phosphatase, placental type (Homo sapiens, UniProt P05187); experiment: PLAP enzyme inhibitors, confirmation, biochemical, luminescence (AID 1512); assay type: functional
[2] = molecular target: Glucose-6-phosphate 1-dehydrogenase (Homo sapiens, UniProt P11413); experiment: human G6PD enzyme inhibitors, dose response, selectivity assay for P. falciparum G6PD inhibitor project, biochemical, fluorescence (AID 504792); assay type: functional
Hexokinase HKDC1 = molecular target: T1, Hexokinase HKDC1 (Homo sapiens, UniProt Q2TB90); experiment: HKDC1 hexokinase inhibitors, dose response, biochemical, W721R variant (AID 504729); assay type: functional
T1 sequence (Q2TB90 whole entry): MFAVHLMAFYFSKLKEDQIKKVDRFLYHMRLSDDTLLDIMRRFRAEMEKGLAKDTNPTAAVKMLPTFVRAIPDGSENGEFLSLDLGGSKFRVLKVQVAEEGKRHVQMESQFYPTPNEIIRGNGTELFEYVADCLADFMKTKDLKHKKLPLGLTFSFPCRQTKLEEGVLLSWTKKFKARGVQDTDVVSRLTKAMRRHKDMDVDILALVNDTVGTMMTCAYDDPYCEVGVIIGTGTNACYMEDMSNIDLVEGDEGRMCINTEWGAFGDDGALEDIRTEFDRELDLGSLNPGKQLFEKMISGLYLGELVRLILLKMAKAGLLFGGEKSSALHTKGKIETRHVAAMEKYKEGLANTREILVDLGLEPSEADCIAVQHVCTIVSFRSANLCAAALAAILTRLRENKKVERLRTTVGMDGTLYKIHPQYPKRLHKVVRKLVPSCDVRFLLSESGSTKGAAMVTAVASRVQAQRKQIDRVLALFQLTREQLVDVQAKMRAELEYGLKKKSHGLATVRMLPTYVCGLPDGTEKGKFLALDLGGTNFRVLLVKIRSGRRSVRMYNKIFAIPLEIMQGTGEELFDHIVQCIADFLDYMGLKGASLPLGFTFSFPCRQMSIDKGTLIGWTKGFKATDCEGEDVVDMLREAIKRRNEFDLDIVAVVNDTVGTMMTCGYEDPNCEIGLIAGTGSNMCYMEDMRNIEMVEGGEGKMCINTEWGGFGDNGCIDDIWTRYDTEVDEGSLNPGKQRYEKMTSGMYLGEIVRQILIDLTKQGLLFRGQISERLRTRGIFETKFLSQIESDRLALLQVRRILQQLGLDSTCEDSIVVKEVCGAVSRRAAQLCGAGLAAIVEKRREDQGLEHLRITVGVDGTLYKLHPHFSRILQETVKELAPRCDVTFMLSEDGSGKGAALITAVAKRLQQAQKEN

Protein RecA = molecular target: T2, Protein RecA (Mycobacterium tuberculosis, UniProt P9WHJ3); experiment: Fluorescence Cell-Free Homogeneous Dose Retest to Identify Inhibitors of RecA-Intein Splicing Activity. [Related pubchem assays (depositor defined):AID2097, AID2223, AID489010, AID492950]; assay type: functional
T2 sequence (P9WHJ3 whole entry): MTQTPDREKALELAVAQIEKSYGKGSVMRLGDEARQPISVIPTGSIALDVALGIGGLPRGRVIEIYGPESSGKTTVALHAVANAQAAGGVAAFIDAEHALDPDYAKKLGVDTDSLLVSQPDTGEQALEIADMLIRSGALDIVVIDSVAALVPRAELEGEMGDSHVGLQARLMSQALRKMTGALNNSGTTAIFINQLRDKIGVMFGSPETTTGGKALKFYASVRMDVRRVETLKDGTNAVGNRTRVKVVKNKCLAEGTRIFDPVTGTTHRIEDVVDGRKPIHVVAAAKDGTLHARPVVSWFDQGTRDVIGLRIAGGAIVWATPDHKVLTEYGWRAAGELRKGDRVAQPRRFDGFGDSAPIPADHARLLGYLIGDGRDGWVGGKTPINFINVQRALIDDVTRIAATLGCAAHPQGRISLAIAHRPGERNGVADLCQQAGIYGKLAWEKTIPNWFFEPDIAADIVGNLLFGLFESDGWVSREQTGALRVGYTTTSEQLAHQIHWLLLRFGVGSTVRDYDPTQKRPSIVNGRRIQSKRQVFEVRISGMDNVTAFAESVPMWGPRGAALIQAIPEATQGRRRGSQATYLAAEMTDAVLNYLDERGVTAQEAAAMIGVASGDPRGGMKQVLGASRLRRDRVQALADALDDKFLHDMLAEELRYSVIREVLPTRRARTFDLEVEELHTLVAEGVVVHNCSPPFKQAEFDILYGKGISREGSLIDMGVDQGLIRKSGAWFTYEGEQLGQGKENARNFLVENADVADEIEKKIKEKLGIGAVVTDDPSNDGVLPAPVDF

[3] = molecular target: T3, Replicative DNA helicase DnaB (Mycobacterium tuberculosis, UniProt P9WMR3); experiment: DnaB intein splicing inhibitors, dose response, biochemical, cell-free fluorescence (AID 449749); assay type: functional
T3 sequence (P9WMR3 whole entry): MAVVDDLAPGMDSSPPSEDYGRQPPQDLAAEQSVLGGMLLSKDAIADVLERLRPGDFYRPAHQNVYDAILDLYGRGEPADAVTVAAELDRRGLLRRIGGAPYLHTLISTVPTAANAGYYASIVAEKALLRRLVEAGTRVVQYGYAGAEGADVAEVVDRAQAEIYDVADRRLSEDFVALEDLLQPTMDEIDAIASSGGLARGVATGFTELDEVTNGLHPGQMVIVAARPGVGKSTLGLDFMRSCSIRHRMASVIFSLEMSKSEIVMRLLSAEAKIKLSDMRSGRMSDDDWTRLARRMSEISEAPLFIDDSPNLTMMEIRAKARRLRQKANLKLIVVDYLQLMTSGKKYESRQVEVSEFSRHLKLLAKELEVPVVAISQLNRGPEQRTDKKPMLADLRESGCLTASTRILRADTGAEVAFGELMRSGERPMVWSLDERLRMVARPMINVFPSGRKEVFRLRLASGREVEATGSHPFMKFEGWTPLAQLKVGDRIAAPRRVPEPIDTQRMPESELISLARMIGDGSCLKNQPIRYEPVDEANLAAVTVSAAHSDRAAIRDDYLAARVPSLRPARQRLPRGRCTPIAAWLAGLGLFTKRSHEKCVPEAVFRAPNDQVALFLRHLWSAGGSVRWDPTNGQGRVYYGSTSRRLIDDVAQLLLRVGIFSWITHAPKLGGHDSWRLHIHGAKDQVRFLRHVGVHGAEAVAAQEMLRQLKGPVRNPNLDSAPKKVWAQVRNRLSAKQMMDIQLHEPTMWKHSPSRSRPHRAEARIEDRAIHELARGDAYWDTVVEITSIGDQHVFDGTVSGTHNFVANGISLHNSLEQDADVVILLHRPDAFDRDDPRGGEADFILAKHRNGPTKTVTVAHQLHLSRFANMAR

[4] = molecular target: Induced myeloid leukemia cell differentiation protein Mcl-1 (Homo sapiens, UniProt Q07820); assay type: functional
Genome polyprotein = Genome polyprotein (dengue virus type 2, UniProt P29990); experiment: Dengue-2 NS5 methyltransferase inhibitors, primary screen, biochemical, confirmation dose response (AID 588689); assay type: functional
[5] = molecular target: Glyceraldehyde-3-phosphate dehydrogenase (Homo sapiens, UniProt P04406)
[6] = molecular target: T4, Alkaline phosphatase, tissue-nonspecific isozyme (Homo sapiens, UniProt P05186); experiment: human TNAP enzyme inhibitors, SAR follow-up, biochemical, luminescent, dose response (AID 1056)
T4 sequence (P05186 whole entry): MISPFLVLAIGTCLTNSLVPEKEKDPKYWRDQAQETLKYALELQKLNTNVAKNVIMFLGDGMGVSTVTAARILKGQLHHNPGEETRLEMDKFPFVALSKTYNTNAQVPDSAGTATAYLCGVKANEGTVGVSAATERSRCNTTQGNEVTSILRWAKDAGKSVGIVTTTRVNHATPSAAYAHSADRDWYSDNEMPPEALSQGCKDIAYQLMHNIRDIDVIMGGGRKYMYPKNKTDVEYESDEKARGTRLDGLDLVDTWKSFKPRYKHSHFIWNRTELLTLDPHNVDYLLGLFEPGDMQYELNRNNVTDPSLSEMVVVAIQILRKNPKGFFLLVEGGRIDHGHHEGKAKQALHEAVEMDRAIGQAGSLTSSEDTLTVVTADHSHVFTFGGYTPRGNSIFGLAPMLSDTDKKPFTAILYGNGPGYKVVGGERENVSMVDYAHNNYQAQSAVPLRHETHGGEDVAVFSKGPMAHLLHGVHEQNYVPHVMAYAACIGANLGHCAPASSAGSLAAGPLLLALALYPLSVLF

[7] = molecular target: Neurotensin receptor type 1 (Homo sapiens, UniProt P30989); assay type: functional;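 further: Image-based confirmatory dose-response assay measuring agonist activity at NTR1; NTR1-expressing U2OS osteosarcoma cells imaged for beta-arrestin GFP spot formation; agonist potency where compounds increase beta-arrestin recruitment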
[8] = molecular target: Dual specificity protein phosphatase 3 (Homo sapiens, UniProt P51452); experiment: VHR1 inhibitor Ki determination, SAR follow-up, biochemical, colorimetric (AID 2004)
[9] = molecular target: Mitochondrial peptide methionine sulfoxide reductase (Bos taurus, UniProt P54149); experiment: Absorbance-based biochemical high throughput dose response assay for activators of Methionine sulfoxide reductase A (MsrA).; assay type: functional
[10] = molecular target: DNA dC->dU-editing enzyme APOBEC-3G (Homo sapiens, UniProt Q9HC16); experiment: Dose Response confirmation of small molecule APOBEC3G DNA Deaminase Inhibitors via a fluorescence-based single-stranded DNA deaminase assay. [Related pubchem assays (depositor defined):AID493012, AID493028]; assay type: functional
[11] = molecular target: T5, Mannose-6-phosphate isomerase (Homo sapiens, UniProt P34949); experiment: PMI enzyme inhibitors, confirmation, biochemical, fluorescence intensity (AID 1535)
T5 sequence (P34949 whole entry): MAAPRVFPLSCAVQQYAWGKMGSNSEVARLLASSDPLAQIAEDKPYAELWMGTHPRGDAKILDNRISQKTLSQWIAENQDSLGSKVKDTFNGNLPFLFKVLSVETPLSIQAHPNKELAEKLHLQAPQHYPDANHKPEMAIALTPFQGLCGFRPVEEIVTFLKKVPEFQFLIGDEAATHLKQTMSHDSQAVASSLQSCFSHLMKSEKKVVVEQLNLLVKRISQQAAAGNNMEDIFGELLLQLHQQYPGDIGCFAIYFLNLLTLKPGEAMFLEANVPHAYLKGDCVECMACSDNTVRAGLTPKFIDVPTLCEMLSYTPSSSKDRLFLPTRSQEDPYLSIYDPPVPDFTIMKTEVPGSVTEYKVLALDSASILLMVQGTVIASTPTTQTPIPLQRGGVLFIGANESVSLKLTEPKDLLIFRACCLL

Large T antigen = Large T antigen (Simian virus 40, UniProt P03070); assay type: functional, Betapolyomavirus macacae;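 further: Confirmatory-stage PubChem screen for compounds that inhibit SV40 T antigen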
Phosphomannomutase 2 = molecular target: T6, Phosphomannomutase 2 (Homo sapiens, UniProt O15305); experiment: Counter screen SAR assay for PMM2 inhibitors via a fluorescence intensity assay. [Related pubchem assays (depositor defined):AID1545, AID1574]
T6 sequence (O15305 whole entry): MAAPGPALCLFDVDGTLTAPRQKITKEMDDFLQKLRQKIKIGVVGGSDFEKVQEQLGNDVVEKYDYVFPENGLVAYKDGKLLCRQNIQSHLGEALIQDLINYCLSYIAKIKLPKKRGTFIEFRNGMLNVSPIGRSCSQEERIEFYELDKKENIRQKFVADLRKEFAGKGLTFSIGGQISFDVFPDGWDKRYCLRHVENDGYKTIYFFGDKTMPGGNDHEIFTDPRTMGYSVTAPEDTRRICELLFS

[12] = molecular target: DNA dC->dU-editing enzyme APOBEC-3A (Homo sapiens, UniProt P31941); experiment: APOBEC3A DNA deaminase inhibitors, dose response, biochemical (AID 504722); assay type: functional
[13] = molecular target: DNA damage-inducible transcript 3 protein (Mus musculus, UniProt P35639); assay type: functional, Cricetulus griseus
[14] = molecular target: E3 ubiquitin-protein ligase Mdm2 (Homo sapiens, UniProt Q00987); experiment: enhancers of MDM2-luciferase reporter signal, concentration-effect titration, project on inhibitors of MDM2 ubiquitin ligase, cellular assay, luminescent readout, 384-well plate format (AID 1394); assay type: functional;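 further: MDM2 E3 inhibitors raise luminescence so EC50 is for signal enhancement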
[15] = cytotoxicity in HEK-293T cells, dose response, cytotoxicity control for TCR NF-kB inhibitor project, luminescence, T-cell screen hits (AID 489026); assay type: functional, cell-based;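 further: cells exposed to compound about 14 hours before the viability readout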
INS1 = experiment: beta cell apoptosis inhibitors, cytokine rescue, dose response, luminescence, retest (AID 449756); assay type: functional, cell-based; conditions: Rattus norvegicus;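 further: cell death triggered by IL-1 beta plus TNF-alpha plus IFN-gamma mixture; protective hits raise ATP signal compared with cytokine alone wells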

Alkaline phosphatase, placental type, sequence (P05187 whole entry): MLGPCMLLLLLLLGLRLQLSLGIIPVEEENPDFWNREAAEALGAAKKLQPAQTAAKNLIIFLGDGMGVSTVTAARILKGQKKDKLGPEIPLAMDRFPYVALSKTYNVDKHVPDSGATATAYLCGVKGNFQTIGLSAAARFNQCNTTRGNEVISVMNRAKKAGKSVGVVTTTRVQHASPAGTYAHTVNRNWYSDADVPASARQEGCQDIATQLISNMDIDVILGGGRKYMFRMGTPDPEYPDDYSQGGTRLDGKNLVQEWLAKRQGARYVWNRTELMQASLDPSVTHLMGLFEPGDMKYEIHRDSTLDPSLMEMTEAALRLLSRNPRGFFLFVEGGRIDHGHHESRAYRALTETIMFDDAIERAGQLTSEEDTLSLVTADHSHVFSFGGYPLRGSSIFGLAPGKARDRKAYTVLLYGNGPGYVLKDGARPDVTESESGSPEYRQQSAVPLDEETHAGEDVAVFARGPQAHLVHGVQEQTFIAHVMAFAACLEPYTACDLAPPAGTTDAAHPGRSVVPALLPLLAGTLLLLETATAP
Glyceraldehyde-3-phosphate dehydrogenase, sequence (P04406 whole entry): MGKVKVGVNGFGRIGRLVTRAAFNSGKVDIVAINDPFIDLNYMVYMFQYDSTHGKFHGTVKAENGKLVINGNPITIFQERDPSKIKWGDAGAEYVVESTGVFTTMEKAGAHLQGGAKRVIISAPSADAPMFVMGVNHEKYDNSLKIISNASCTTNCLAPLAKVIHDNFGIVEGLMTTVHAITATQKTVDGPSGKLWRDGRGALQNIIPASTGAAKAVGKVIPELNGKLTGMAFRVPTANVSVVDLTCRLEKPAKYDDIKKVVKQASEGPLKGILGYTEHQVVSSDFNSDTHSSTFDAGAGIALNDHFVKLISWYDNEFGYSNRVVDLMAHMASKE
DNA dC->dU-editing enzyme APOBEC-3A, sequence (P31941 whole entry): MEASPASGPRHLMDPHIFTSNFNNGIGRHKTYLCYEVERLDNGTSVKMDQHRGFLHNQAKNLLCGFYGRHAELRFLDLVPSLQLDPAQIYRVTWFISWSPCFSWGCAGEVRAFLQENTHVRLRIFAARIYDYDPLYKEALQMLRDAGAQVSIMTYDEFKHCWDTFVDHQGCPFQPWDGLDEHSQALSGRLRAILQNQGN
DNA dC->dU-editing enzyme APOBEC-3G, sequence (Q9HC16 whole entry): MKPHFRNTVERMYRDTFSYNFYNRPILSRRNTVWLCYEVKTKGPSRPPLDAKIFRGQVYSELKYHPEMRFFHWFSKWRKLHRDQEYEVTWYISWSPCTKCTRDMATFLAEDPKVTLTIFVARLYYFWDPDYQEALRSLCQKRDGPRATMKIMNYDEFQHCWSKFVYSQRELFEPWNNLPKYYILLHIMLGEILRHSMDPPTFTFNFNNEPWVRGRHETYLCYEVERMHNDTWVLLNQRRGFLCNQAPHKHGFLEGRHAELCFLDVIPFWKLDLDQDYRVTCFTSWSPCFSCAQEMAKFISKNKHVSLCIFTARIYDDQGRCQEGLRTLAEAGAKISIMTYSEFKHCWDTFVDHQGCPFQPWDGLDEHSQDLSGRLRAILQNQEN
Dual specificity protein phosphatase 3, sequence (P51452 whole entry): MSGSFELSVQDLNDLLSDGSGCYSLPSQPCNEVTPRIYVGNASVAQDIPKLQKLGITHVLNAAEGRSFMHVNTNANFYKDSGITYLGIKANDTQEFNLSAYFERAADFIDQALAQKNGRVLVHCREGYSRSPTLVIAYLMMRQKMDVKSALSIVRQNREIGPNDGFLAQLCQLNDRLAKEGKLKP
DNA damage-inducible transcript 3 protein, sequence (P35639 whole entry): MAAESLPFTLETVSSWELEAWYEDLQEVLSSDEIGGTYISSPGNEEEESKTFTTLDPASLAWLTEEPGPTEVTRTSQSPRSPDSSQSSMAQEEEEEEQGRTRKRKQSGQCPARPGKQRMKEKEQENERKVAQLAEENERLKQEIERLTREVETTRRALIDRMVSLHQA
Glucose-6-phosphate 1-dehydrogenase, sequence (P11413 whole entry): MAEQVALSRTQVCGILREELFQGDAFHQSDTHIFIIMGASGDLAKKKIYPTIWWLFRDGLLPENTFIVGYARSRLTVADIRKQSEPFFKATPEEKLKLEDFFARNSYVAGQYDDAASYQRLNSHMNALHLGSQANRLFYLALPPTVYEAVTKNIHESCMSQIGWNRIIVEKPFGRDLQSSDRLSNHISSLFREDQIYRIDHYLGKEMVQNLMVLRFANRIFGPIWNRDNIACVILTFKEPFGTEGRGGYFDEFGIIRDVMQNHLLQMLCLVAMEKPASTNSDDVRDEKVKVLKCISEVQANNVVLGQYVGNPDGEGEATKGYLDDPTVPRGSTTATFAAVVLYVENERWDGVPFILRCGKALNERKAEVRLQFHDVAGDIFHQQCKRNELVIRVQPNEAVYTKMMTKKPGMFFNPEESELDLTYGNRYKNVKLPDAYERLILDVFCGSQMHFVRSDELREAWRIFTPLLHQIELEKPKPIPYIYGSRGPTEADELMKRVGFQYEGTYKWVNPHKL
Mitochondrial peptide methionine sulfoxide reductase, sequence (P54149 whole entry): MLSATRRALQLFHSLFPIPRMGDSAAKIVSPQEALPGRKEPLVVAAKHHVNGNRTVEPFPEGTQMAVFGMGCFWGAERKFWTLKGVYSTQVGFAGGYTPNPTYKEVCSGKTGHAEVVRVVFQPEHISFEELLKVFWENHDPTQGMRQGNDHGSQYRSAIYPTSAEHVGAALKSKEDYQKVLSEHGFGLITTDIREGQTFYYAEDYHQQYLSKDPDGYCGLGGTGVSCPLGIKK
Genome polyprotein, sequence (P29990 2492-3391 limits assumed): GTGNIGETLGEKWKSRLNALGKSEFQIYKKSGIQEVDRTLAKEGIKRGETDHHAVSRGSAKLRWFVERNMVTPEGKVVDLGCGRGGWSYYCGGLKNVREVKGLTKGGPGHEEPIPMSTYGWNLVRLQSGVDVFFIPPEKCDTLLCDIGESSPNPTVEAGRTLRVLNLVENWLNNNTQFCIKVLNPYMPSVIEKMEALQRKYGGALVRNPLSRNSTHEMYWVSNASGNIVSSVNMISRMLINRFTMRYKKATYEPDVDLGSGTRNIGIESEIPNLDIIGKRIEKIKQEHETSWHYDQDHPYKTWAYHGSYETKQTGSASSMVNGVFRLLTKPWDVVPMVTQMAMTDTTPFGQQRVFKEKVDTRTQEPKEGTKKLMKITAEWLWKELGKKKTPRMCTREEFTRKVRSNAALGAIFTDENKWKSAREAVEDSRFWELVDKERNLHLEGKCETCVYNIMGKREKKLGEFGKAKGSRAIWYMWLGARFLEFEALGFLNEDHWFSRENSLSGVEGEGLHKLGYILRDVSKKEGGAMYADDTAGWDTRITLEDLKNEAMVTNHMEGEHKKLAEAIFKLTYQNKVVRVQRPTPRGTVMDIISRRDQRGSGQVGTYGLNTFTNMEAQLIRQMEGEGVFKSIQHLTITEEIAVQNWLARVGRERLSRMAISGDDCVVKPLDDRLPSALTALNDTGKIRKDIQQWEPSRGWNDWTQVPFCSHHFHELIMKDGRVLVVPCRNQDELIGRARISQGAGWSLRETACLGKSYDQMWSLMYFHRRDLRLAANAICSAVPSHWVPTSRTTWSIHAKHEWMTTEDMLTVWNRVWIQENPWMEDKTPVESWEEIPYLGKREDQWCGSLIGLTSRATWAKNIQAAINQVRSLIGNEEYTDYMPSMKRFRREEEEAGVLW
Neurotensin receptor type 1, sequence (P30989 whole entry): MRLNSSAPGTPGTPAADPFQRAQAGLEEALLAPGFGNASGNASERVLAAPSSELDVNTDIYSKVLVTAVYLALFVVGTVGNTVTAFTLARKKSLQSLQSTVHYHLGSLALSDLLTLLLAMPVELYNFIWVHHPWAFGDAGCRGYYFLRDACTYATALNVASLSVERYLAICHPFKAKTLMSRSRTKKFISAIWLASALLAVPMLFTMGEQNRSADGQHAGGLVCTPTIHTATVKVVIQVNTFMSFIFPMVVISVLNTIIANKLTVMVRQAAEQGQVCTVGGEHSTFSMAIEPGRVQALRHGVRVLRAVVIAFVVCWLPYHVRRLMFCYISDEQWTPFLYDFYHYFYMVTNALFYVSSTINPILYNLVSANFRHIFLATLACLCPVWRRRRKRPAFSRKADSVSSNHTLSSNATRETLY
Large T antigen, sequence (P03070 whole entry): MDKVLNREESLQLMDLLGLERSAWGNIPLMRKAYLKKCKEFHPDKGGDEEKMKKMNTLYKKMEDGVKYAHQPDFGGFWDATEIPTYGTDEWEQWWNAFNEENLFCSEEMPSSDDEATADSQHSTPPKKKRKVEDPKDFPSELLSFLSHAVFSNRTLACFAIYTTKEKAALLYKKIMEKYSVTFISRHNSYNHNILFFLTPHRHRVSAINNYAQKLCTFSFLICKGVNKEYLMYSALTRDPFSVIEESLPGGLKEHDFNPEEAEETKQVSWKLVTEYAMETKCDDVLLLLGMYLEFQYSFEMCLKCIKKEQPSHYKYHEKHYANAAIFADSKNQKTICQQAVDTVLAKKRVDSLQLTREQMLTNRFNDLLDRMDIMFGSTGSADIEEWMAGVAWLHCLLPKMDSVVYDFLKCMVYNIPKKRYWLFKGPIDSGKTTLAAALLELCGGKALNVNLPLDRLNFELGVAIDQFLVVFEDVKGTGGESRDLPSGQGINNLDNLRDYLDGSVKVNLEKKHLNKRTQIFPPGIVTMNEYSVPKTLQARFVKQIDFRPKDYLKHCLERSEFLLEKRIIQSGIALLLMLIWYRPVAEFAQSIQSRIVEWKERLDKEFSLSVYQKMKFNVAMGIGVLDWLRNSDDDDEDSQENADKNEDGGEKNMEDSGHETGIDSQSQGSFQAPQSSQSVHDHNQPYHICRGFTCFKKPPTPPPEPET
Induced myeloid leukemia cell differentiation protein Mcl-1, sequence (Q07820 whole entry): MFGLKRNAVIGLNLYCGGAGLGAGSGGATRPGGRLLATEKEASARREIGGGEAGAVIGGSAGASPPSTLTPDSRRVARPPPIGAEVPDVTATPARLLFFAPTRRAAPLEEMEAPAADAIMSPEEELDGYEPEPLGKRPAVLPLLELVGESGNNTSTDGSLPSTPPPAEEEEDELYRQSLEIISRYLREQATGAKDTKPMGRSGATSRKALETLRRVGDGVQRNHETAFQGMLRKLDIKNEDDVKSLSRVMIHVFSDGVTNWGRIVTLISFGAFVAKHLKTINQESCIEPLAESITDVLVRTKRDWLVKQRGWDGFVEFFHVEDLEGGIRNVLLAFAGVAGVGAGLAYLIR

COc1ccc(C(=O)NN=C(S)NC2CCCCC2)cc1OC
IC50 [1]: > 100 µM (inactive)

Cc1nc(COC(=O)c2cc(O)c3ccccc3c2O)cs1
IC50 [2]: > 80 µM (inactive) | IC50 (Hexokinase HKDC1): 12.1 µM (active) | EC50 (Protein RecA): 5.24 µM (active) | AC50 [3]: 24.7 µM (active) | IC50 [4]: 4.84 µM (active) | IC50 (Genome polyprotein): 43.1 µM (active)

O=S(=O)(Nc1cnc2ccccc2c1)c1ccccc1OC(F)(F)F
IC50 [5]: > 100 µM (not active) | IC50 [6]: 16.4 µM (active)

C[C@H](NC(=O)c1nc[nH]c1C(=O)Nc1cccc(Cl)c1)c1ccccc1
EC50 [7]: 24 µM (inactive)

S=C(S)N(CCN(Cc1cccs1)C(=S)S)Cc1cccs1
Ki [8]: 36.3 µM (inactive)

O=C(c1cc(-c2cc(F)c(Cl)cc2Cl)n[nH]1)N1CCCC1
IC50 [1]: > 100 µM (inactive) | IC50 [5]: > 100 µM (not active) | IC50 [6]: > 100 µM (inactive)

CC1(C)c2ssc(=S)c2-c2ccccc2N1C(=O)CN1CCOCC1
Ki [8]: 40.5 µM (inactive)

COc1cc(-c2n[nH]c(=S)[nH]2)cc(OC)c1OC
EC50 [9]: > 104 µM (inactive) | IC50 [10]: 3.13 µM (active) | IC50 [11]: 38.9 µM (active) | IC50 (Large T antigen): 8.6 µM (active) | IC50 (Phosphomannomutase 2): > 100 µM (inactive) | IC50 [12]: > 100 µM (inactive)

Oc1ccc(/C=N/N2CCN(C3c4ccccc4-c4ccccc43)CC2)c(O)c1
Absolute IC50 (CHOP) [13]: 10 µM

Sc1nncn1/N=C/c1ccc(Br)cc1
IC50 [10]: 2.72 µM (active) | IC50 [12]: > 100 µM (inactive)

C=C1C(=O)O[C@H]2C[C@@H](C)[C@@H]3C=CC(=O)[C@@]3(C)C[C@H]12 [AROMATICIN]
Absolute IC50 (CHOP) [13]: 10 µM | EC50 [14]: 0.59 µM (not active) | IC50 [15]: > 80 µM (inactive) | AC50 (INS1): 7.82 µM (active)
